Test results: patent EP0417637A2, “Use of dopamine autoreceptor agonists in the treatment of drug dependency” (BOEHRINGER INGELHEIM KG, priority 1989, dated 1991)
Where two headings read alike, the source gives them in different places.

Experiments:
drogenabhängigen Affen = test: Test 3: effect of BHT 920 on cocaine or alfentanil self-administration in drug-dependent monkeys; type: in vivo
Procedure: Nach Durchführung des Tests Nr. […] In weiteren analogen Versuchen (siehe beiliegende graphische Darstellungen für Affe 1, Affe 2 und Affe 3) wurde den drogenabhängigen Affen BHT 920 in 2 Dosen (0,01 und 0,1 mg/kg/Injektion) gleichzeitig zu steigenden Dosen von Kokain (2 Tiere) beziehungsweise Alfentanil (1 Tier) angeboten. […] Auch sehr hohe Dosen der suchterzeugenden Droge konnten diese Wirkung von BHT 920 nicht aufheben. Aufgrund von Verhaltensbeobachtungen während der oben beschriebenen Tests kann gesagt werden, daß die hemmende Wirkung von BHT 920 nicht durch eine allgemeine Sedation erklärt werden kann. Daraus kann geschlossen werden, daß die Verabreichung von BHT 920 das Bedürfnis nach Kokain mindert und die psychische Abhängigkeit von der Droge durchbricht.

[1] = Extensive animal tests on abuse potential (no method given); type: in vivo
Description: Das ist für die Therapie von großer Bedeutung.

Affen [2] = test: Test 2: intravenous self-administration in monkeys receiving cocaine infusions (analogous to Test 1); conditions: BHT 920 0,001, 0,003 and 0,01 mg/kg/Injektion or cocaine; 3 monkeys, each dose available for 25 min or 20 infusions
Affen [3] = test: Test 1: intravenous self-administration in monkeys experienced with sodium methohexital and saline; conditions: for Anzahl der Selbstinjektionen: average values, 3 monkeys, sessions of 130 min
Affen [4] = conditions: in vivo

SMILES	Kokain - beziehungsweise Alfentanil - Selbstadministrationsrate (drogenabhängigen Affen; BHT 920 high dose 0,1 mg/kg/Injektion given together with rising doses of cocaine (2 animals) or alfentanil (1 animal))	Kokain - beziehungsweise Alfentanil - Selbstadministrationsrate (drogenabhängigen Affen; BHT 920 lower dose 0,01 mg/kg/Injektion given together with rising doses of cocaine (2 animals) or alfentanil (1 animal))	durch Kokain verursachte Reaktionshäufigkeit (drogenabhängigen Affen; session following administration of BHT 920, in 2 of 3 animals, compared with cocaine in Test 2)	Mißbrauchspotential [1]	Reaktionshäufigkeit (Affen [2])	Anzahl der Selbstinjektionen (Affen [3]; 0,01 mg BHT 920/kg/Injektion i.v.)	Anzahl der Selbstinjektionen (Affen [3]; 0,05 mg BHT 920/kg/Injektion i.v.)	Anzahl der Selbstinjektionen (Affen [3]; 0,0001 mg BHT 920/kg/Injektion i.v.)	Anzahl der Selbstinjektionen (Affen [3]; 0,001 mg BHT 920/kg/Injektion i.v.)	Reinforcement (Affen [3]; at the doses used)	Anzahl der genommenen Injektionen der Testsubstanz (Affen [3]; four doses, each tested twice in each monkey, compared with saline and methohexital)	Reaktionshäufigkeit (Affen [4])
C=CCN1CCc2nc(N)sc2CC1 [BHT 920, 6-Allyl-2-amino-5,6,7,8-tetrahydro-4H-thiazolo[4,5-d]azepin]	auf Null sinken	deutlichen Abnahme	wesentlich unter der in Test 2 für Kokain beobachtete Reaktionshäufigkeit	kein Mißbrauchspotential	in dem Bereich lag, der auch bei Kochsalzlösung beobachtet wurde	10	18	21	19	kein Reinforcement	nicht höher als die Anzahl der genommenen Injektionen von Kochsalzlösung	–
COC(=O)[C@H]1[C@@H](OC(=O)c2ccccc2)C[C@@H]2CC[C@H]1N2C [Kokain]	–	–	–	–	–	–	–	–	–	–	–	dosenabhängige Erhöhung der Reaktionshäufigkeit
CCCN[C@H]1CCc2nc(N)sc2C1 [SND 919, (S)-2-Amino-4,5,6,7-tetrahydro-6-n-propylamino-benzothiazol]	–	–	–	kein Mißbrauchspotential	–	–	–	–	–	–	–	–
